IC50 data for 12 compounds are collected here from US20240218022A1, “ANTI-VISTA MACROCYCLIC PEPTIDES AND COMPOSITIONS” (BRISTOL-MYERS SQUIBB COMPANY, priority 2022, published 2024).

Starred links: 1 amine or outer side, 2 acyl side, 3 side chain; linkers in the order of their positions; H or OH if unused. Positions of bridges follow the written chain, without caps; N, C: chain ends. Non-standard residues stand in square brackets, D forms with d. Residues, ends and D or L forms follow the SMILES beside them. Phe(4-COOH) = N[C@@H](Cc1ccc(C(=O)O)cc1)C(=O)O; βAsp = O=C(O)[C@H](CC(=O)[*:2])N[*:1]; Ala(cPr) = N[C@@H](CC1CC1)C(=O)O; Aad = N[C@@H](CCCC(=O)O)C(=O)O; Cha = N[C@@H](CC1CCCCC1)C(=O)O; NMeL = CN[C@@H](CC(C)C)C(=O)O; Ahp(2) = CCCCC[C@H](N)C(=O)O; NMeNle = CCCC[C@H](NC)C(=O)O; Tle = CC(C)(C)[C@H](N)C(=O)O; NMeS = CN[C@@H](CO)C(=O)O; NHexGly = CCCCCCNCC(=O)O; Orn = NCCC[C@H](N)C(=O)O; Aun = NCCCCCCCCCCC(=O)O; Abu = CC[C@H](N)C(=O)O; AEEA = NCCOCCOCC(=O)O

The target in the assay is T1, mouse VISTA (mVISTA) (Mus musculus, UniProt Q9D659).
T1 construct: expressed in transfected cells; host or cells: Human embryonic kidney 293T cells
T1 sequence (Q9D659 33-308): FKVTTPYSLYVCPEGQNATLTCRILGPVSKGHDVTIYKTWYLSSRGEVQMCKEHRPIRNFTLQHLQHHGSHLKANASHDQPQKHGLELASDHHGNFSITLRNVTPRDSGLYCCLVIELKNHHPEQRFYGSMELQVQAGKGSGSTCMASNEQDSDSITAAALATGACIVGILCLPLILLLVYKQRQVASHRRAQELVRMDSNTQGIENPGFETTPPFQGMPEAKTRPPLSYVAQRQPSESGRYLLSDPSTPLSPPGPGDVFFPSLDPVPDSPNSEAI
Description: Cell-Based Binding High-Content Assay For mVISTA (HC CBA mVISTA). Particulars: cell-based binding high-content assay, mVISTA; read-out: HC CBA miPr ISTA IC50. The gist of the method:
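293T cells expressing mouse VISTA, with compounds added either after seeding ("no wash") or before seeding and then washed out after 1 h. Biotinylated peptide 2 nM for 30 min at room temperature, then detection with Alexa 647–streptavidin. After fixation with Hoechst stain, plates were high-content imaged; IC50 from four-parameter logistic fit.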
Broadly, the IC50 is the point on the concentration scale where inhibition reaches its midpoint. As for `CCCCCCN1CC(=O)N[C@@H](Cc2ccc(O)cc2)C(=O)N[C@@H](CC(C)C)C(=O)N[C@@H](CC(N)=O)C(=O)N[C@@H](CCCNC(=N)N)C(=O)N(C)[C@@H](CO)C(=O)N[C@@H](CCCCC)C(=O)N2CCC[C@H]2C(=O)N[C@@H](C(C)(C)C)C(=O)N[C@@H](CC(=O)O)C(=O)N[C@H](C(=O)N[C@@H](CC(=O)NCCOCCOCC(=O)N[C@@H](CC(=O)O)C(=O)NCCOCCOCC(=O)NCCCCCCCCCCC(=O)O)C(=O)O)CSCC(=O)N[C@@H](Cc2ccc(C(=O)O)cc2)C(=O)N[C@@H](Cc2ccc(O)cc2)C(=O)N[C@@H](CC(=O)O)C1=O` [compound 2048] ({CH2CO}-[Phe(4-COOH)]YD[NHexGly]YLNR[NMeS][Ahp(2)]P[Tle]DC[βAsp][AEEA]D[AEEA][Aun]-OH; thioether N-14), the IC50 was 35 nM.
As for `CCCCCCN1CC(=O)N[C@@H](Cc2ccc(O)cc2)C(=O)N[C@@H](CC(C)C)C(=O)N[C@@H](CC(N)=O)C(=O)N[C@@H](CCCNC(=N)N)C(=O)N(C)[C@@H](CCCC)C(=O)N[C@@H](CCCCC)C(=O)N2CCC[C@H]2C(=O)N[C@@H](C(C)(C)C)C(=O)N[C@@H](CO)C(=O)N[C@H](C(=O)N[C@@H](CC(=O)NCCOCCOCC(=O)N[C@@H](CC(=O)O)C(=O)NCCOCCOCC(=O)NCCCCCCCCCCC(=O)O)C(=O)O)CSCC(=O)N[C@@H](Cc2ccc(C(=O)O)cc2)C(=O)N[C@@H](Cc2ccc(O)cc2)C(=O)N[C@@H](CC(=O)O)C1=O` [compound 2050] ({CH2CO}-[Phe(4-COOH)]YD[NHexGly]YLNR[NMeNle][Ahp(2)]P[Tle]SC[βAsp][AEEA]D[AEEA][Aun]-OH; thioether N-14), the IC50 was determined as 24.1 nM.
On to `CCCCCCN1CC(=O)N[C@@H](Cc2ccc(O)cc2)C(=O)N[C@@H](CC(C)C)C(=O)N[C@@H](CC(N)=O)C(=O)N[C@@H](CCCNC(=N)N)C(=O)N(C)[C@@H](CC(C)C)C(=O)N[C@@H](CCCCC)C(=O)N2CCC[C@H]2C(=O)N[C@@H](C(C)(C)C)C(=O)N[C@@H](CO)C(=O)N[C@H](C(=O)N[C@@H](CC(=O)NCCOCCOCC(=O)N[C@@H](CC(=O)O)C(=O)NCCOCCOCC(=O)NCCCCCCCCCCC(=O)O)C(=O)O)CSCC(=O)N[C@@H](Cc2ccc(C(=O)O)cc2)C(=O)N[C@@H](Cc2ccc(O)cc2)C(=O)N[C@@H](CC(=O)O)C1=O` [compound 2052] ({CH2CO}-[Phe(4-COOH)]YD[NHexGly]YLNR[NMeL][Ahp(2)]P[Tle]SC[βAsp][AEEA]D[AEEA][Aun]-OH; thioether N-14), for which the IC50 came to 31.7 nM.
As for `CCCCCCN1CC(=O)N[C@@H](Cc2ccc(O)cc2)C(=O)N[C@@H](CC2CCCCC2)C(=O)N[C@@H](CC(N)=O)C(=O)N[C@@H](CCCNC(=N)N)C(=O)N(C)[C@@H](CCCC)C(=O)N[C@@H](CCCCC)C(=O)N2CCC[C@H]2C(=O)N[C@@H](C(C)(C)C)C(=O)N[C@@H](CO)C(=O)N[C@H](C(=O)N[C@@H](CC(=O)NCCOCCOCC(=O)N[C@@H](CC(=O)O)C(=O)NCCOCCOCC(=O)NCCCCCCCCCCC(=O)O)C(=O)O)CSCC(=O)N[C@@H](Cc2ccccc2)C(=O)N[C@@H](Cc2ccc(O)cc2)C(=O)N[C@@H](CC(=O)O)C1=O` [compound 2053] ({CH2CO}-FYD[NHexGly]Y[Cha]NR[NMeNle][Ahp(2)]P[Tle]SC[βAsp][AEEA]D[AEEA][Aun]-OH; thioether N-14), the figure is 39.4 nM; as for `CCCCCCN1CC(=O)N[C@@H](Cc2ccc(O)cc2)C(=O)N[C@@H](CCCC(=O)O)C(=O)N[C@@H](CC(N)=O)C(=O)N[C@@H](CCCNC(=N)N)C(=O)N(C)[C@@H](CCCC)C(=O)N[C@@H](CCCCC)C(=O)N2CCC[C@H]2C(=O)N[C@@H](C(C)(C)C)C(=O)N[C@@H](CO)C(=O)N[C@H](C(=O)N[C@@H](CC(=O)NCCOCCOCC(=O)N[C@@H](CC(=O)O)C(=O)NCCOCCOCC(=O)NCCCCCCCCCCC(=O)O)C(=O)O)CSCC(=O)N[C@@H](Cc2ccccc2)C(=O)N[C@@H](Cc2ccc(O)cc2)C(=O)N[C@@H](CC(=O)O)C1=O` [compound 2054] ({CH2CO}-FYD[NHexGly]Y[Aad]NR[NMeNle][Ahp(2)]P[Tle]SC[βAsp][AEEA]D[AEEA][Aun]-OH; thioether N-14), 23.2 nM; as for `CCCCCCN1CC(=O)N[C@@H](Cc2ccc(O)cc2)C(=O)N[C@@H](CC2CCCCC2)C(=O)N[C@@H](CC(N)=O)C(=O)N[C@@H](CCCN)C(=O)N(C)[C@@H](CCCC)C(=O)N[C@@H](CCCCC)C(=O)N2CCC[C@H]2C(=O)N[C@@H](C(C)(C)C)C(=O)N[C@@H](CO)C(=O)N[C@H](C(=O)N[C@@H](CC(=O)NCCOCCOCC(=O)N[C@@H](CC(=O)O)C(=O)NCCOCCOCC(=O)NCCCCCCCCCCC(=O)O)C(=O)O)CSCC(=O)N[C@@H](Cc2ccccc2)C(=O)N[C@@H](Cc2ccc(O)cc2)C(=O)N[C@@H](CC(=O)O)C1=O` [compound 2055] ({CH2CO}-FYD[NHexGly]Y[Cha]N[Orn][NMeNle][Ahp(2)]P[Tle]SC[βAsp][AEEA]D[AEEA][Aun]-OH; thioether N-14), 32.7 nM.
As to `CCCCCCN1CC(=O)N[C@@H](Cc2ccc(O)cc2)C(=O)N[C@@H](CCCC(=O)O)C(=O)N[C@@H](CC(N)=O)C(=O)N[C@@H](CCCN)C(=O)N(C)[C@@H](CCCC)C(=O)N[C@@H](CCCCC)C(=O)N2CCC[C@H]2C(=O)N[C@@H](C(C)(C)C)C(=O)N[C@@H](CO)C(=O)N[C@H](C(=O)N[C@@H](CC(=O)NCCOCCOCC(=O)N[C@@H](CC(=O)O)C(=O)NCCOCCOCC(=O)NCCCCCCCCCCC(=O)O)C(=O)O)CSCC(=O)N[C@@H](Cc2ccccc2)C(=O)N[C@@H](Cc2ccc(O)cc2)C(=O)N[C@@H](CC(=O)O)C1=O` [compound 2056] ({CH2CO}-FYD[NHexGly]Y[Aad]N[Orn][NMeNle][Ahp(2)]P[Tle]SC[βAsp][AEEA]D[AEEA][Aun]-OH; thioether N-14), the half-inhibitory concentration (IC50) is 26.1 nM.
`CCCCCCN1CC(=O)N[C@@H](Cc2ccc(O)cc2)C(=O)N[C@@H](C)C(=O)N[C@@H](CC(N)=O)C(=O)N[C@@H](CCCNC(=N)N)C(=O)N(C)[C@@H](CCCC)C(=O)N[C@@H](CCCCC)C(=O)N2CCC[C@H]2C(=O)N[C@@H](C(C)(C)C)C(=O)N[C@@H](CO)C(=O)N[C@H](C(=O)N[C@@H](CC(=O)NCCOCCOCC(=O)N[C@@H](CC(=O)O)C(=O)NCCOCCOCC(=O)NCCCCCCCCCCC(=O)O)C(=O)O)CSCC(=O)N[C@@H](Cc2ccccc2)C(=O)N[C@@H](Cc2ccc(O)cc2)C(=O)N[C@@H](CC(=O)O)C1=O` [compound 2058] ({CH2CO}-FYD[NHexGly]YANR[NMeNle][Ahp(2)]P[Tle]SC[βAsp][AEEA]D[AEEA][Aun]-OH; thioether N-14): the half-inhibitory concentration (IC50) stood at 27.6 nM.
With `CCCCCCN1CC(=O)N[C@@H](Cc2ccc(O)cc2)C(=O)N[C@@H](CC)C(=O)N[C@@H](CC(N)=O)C(=O)N[C@@H](CCCNC(=N)N)C(=O)N(C)[C@@H](CCCC)C(=O)N[C@@H](CCCCC)C(=O)N2CCC[C@H]2C(=O)N[C@@H](C(C)(C)C)C(=O)N[C@@H](CO)C(=O)N[C@H](C(=O)N[C@@H](CC(=O)NCCOCCOCC(=O)N[C@@H](CC(=O)O)C(=O)NCCOCCOCC(=O)NCCCCCCCCCCC(=O)O)C(=O)O)CSCC(=O)N[C@@H](Cc2ccccc2)C(=O)N[C@@H](Cc2ccc(O)cc2)C(=O)N[C@@H](CC(=O)O)C1=O` [compound 2059] ({CH2CO}-FYD[NHexGly]Y[Abu]NR[NMeNle][Ahp(2)]P[Tle]SC[βAsp][AEEA]D[AEEA][Aun]-OH; thioether N-14), the 50% inhibitory concentration (IC50) was 37.4 nM.
As to `CCCCCCN1CC(=O)N[C@@H](Cc2ccc(O)cc2)C(=O)N[C@@H](CC)C(=O)N[C@@H](CC(N)=O)C(=O)N[C@@H](CCCN)C(=O)N(C)[C@@H](CCCC)C(=O)N[C@@H](CCCCC)C(=O)N2CCC[C@H]2C(=O)N[C@@H](C(C)(C)C)C(=O)N[C@@H](CO)C(=O)N[C@H](C(=O)N[C@@H](CC(=O)NCCOCCOCC(=O)N[C@@H](CC(=O)O)C(=O)NCCOCCOCC(=O)NCCCCCCCCCCC(=O)O)C(=O)O)CSCC(=O)N[C@@H](Cc2ccccc2)C(=O)N[C@@H](Cc2ccc(O)cc2)C(=O)N[C@@H](CC(=O)O)C1=O` [compound 2060] ({CH2CO}-FYD[NHexGly]Y[Abu]N[Orn][NMeNle][Ahp(2)]P[Tle]SC[βAsp][AEEA]D[AEEA][Aun]-OH; thioether N-14), the IC50 is 24.7 nM.
For the compound `CCCCCCN1CC(=O)N[C@@H](Cc2ccc(O)cc2)C(=O)N[C@@H](C)C(=O)N[C@@H](CC(N)=O)C(=O)N[C@@H](CCCN)C(=O)N(C)[C@@H](CCCC)C(=O)N[C@@H](CCCCC)C(=O)N2CCC[C@H]2C(=O)N[C@@H](C(C)(C)C)C(=O)N[C@@H](CO)C(=O)N[C@H](C(=O)N[C@@H](CC(=O)NCCOCCOCC(=O)N[C@@H](CC(=O)O)C(=O)NCCOCCOCC(=O)NCCCCCCCCCCC(=O)O)C(=O)O)CSCC(=O)N[C@@H](Cc2ccccc2)C(=O)N[C@@H](Cc2ccc(O)cc2)C(=O)N[C@@H](CC(=O)O)C1=O` [compound 2061] ({CH2CO}-FYD[NHexGly]YAN[Orn][NMeNle][Ahp(2)]P[Tle]SC[βAsp][AEEA]D[AEEA][Aun]-OH; thioether N-14), the IC50 came out at 21.5 nM.
In the case of `CCCCCCN1CC(=O)N[C@@H](Cc2ccc(O)cc2)C(=O)N[C@@H](CC2CC2)C(=O)N[C@@H](CC(N)=O)C(=O)N[C@@H](CCCN)C(=O)N(C)[C@@H](CCCC)C(=O)N[C@@H](CCCCC)C(=O)N2CCC[C@H]2C(=O)N[C@@H](C(C)(C)C)C(=O)N[C@@H](CO)C(=O)N[C@H](C(=O)N[C@@H](CC(=O)NCCOCCOCC(=O)N[C@@H](CC(=O)O)C(=O)NCCOCCOCC(=O)NCCCCCCCCCCC(=O)O)C(=O)O)CSCC(=O)N[C@@H](Cc2ccccc2)C(=O)N[C@@H](Cc2ccc(O)cc2)C(=O)N[C@@H](CC(=O)O)C1=O` [compound 2062] ({CH2CO}-FYD[NHexGly]Y[Ala(cPr)]N[Orn][NMeNle][Ahp(2)]P[Tle]SC[βAsp][AEEA]D[AEEA][Aun]-OH; thioether N-14), the half-inhibitory concentration (IC50) amounted to 49.2 nM.
